# From patent US20100303887A1, “DHA and PEDF, a Therapeutic Composition for Nerve and Retinal Pigment Epithelial Cells” (priority 2007, published 2010)
# Legend:
# NPD1 synthesis = NPD1 synthesis and release from polarized primary human RPE cell monolayers (lipidomic analysis); assay type: cell-based
# Method: Human RPE cells. Cultures of retinal pigment epithelial (RPE) cells were prepared. RPE cells were seeded onto Millicell-HA culture plate inserts (Millipore, Bradford, Mass.), placed in 24-well plates, and allowed to reach confluence. Consent for use of tissue for research was obtained in compliance with Federal and State law and institutional regulations. Cultures were maintained in Chee's essential replacement medium until the experiments were performed as described in J. Hu and D. Bok (2001) Mol Vis 7:14-19. The medium includes Eagle's minimal essential medium with calcium (MEM, Irvine Scientific, Irvine, Calif.), 1% heat-inactivated calf serum (JRH Bioscience, Lennexo, Kans.), amino acid supplements, and 1% bovine retinal extract. The Millicell-HA filter inserts allow separate manipulation of the culture media bathing the apical and basal surfaces of the RPE monolayer and measurement of the transepithelial resistance (TER), which provides a measure of cell differentiation and confluency. Cultures were used for experiments once they developed a TER of at least 400 Ω·cm^2, as measured by an Epithelial Volt-ohmmeter (EVOM, World Precision Instruments, New Haven, Conn.).
# Exposure of RPE cells to growth factors. […] […] The lower chamber was filled with 500 μl media (bathing the basal cell monolayer surface) containing 0.1% HSA. Cells were incubated for 72 hours, then apical and basal media were removed and collected for analysis. After allowing the cells to rest for at least 72 hours on fresh media, the experiments were repeated.
# Lipidomic analysis. Human RPE primary cell cultures or ARPE-19 cells were separated from culture media and washed with 1 ml PBS. After addition of 1 ml methanol, cells were scraped from plates or millicell membranes and collected for lipid extraction. Media was spun-down to separate cell debris, then 350 μl were collected in 1 ml of cold chloroform:methanol (1:1). Protein precipitates were then separated by centrifugation at 1500×g (5 min, 4° C.). Lipid extracts were collected, and kept under nitrogen at −80° C. until solid-phase purification; extracts were pre-equilibrated at pH 3.0 in 10% methanol/water, then loaded to 500 mg C18 columns (Varian, Inc., Palo Alto, Calif.), and eluted with 1% methanol/ethyl acetate. Eluates were concentrated on a N2 stream evaporator. Samples were loaded to a liquid chromatograph-tandem mass spectrometer (LC-TSQ Quantum, Thermo-Finnigan; Thermo Fisher Scientific, Waltham, Mass.) installed with a Biobasic-AX column (Thermo-Hypersil-Keystone, Thermo Fisher Scientific, Waltham, Mass.) (100 mm\2.1 mm, 5-μm particle sizes), and eluted in a linear gradient [100% solution A (40:60:0.01 methanol/water/acetic acid pH 4.5) to 100% solution B (99.99:0.01 methanol/acetic acid)], at a flow rate of 300 μl/min for 30 minutes. LC effluents were diverted to an electro-spray-ionization probe (ESI) on a TSQ Quantum (Thermo-Finnigan, Thermo Fisher Scientific, Waltham, Mass.) triple quadrupole mass spectrometer. NPD1 and resolving D1 were obtained by biogenic synthesis as described in N. G. Bazan, D. L. Birkle, and T. S. Reddy (1984) Biochem Biophys Res Commun. 125:741-74, and V. L. Marcheselli et al. (2003) J. Biol. Chem. 278:43807-43817. Erratum in: (2003) J Biol Chem 278:51974. Other lipid standards (Cayman Chem. Ann Arbor, Mich.) were used for tuning and optimization and to create calibration curves. The instrument was set on full-scan mode, to detect parent ions, and selected reaction mode (SRM) for quantitative analysis, to detect product ions, simultaneously. The selected parent/product ions (m/z) and collision energy (v) obtained by running on negative ion detection mode were: 359.2/153.1/20 for NPD1, 343.2/281.2/18 for resolving D1, 351.2/195.0/22 for 20HO-LTB4 (used as internal standard), 327.2/283.3/16 for DHA, 311.3/267.3/20 Arachidonic Acid-d8 (used as internal standard, IS).
# Neurotrophins activated NPD1 synthesis in cultured primary human RPE cells. […]
# ARPE-19 cells [1] = assay: Cell viability using calcein (AM), ethidium homodimer and phase contrast microscopy after oxidative stress; assay type: cell-based, human; conditions: added up to 15 hr after triggering oxidative stress; data not shown
# Source text: A2E-triggered oxidative stress precedes cell death. Since oxidative stress and/or inflammatory signaling are involved in early stages of retinal degenerations, oxidative stress, triggered by another experimental condition, serum starvation/H2O2/TNFα was explored (FIG. 1C). NPD1 also exerted protection in this experimental condition. […] What was surprising was the extended time window. […] (Data not shown)
# ARPE-19 cells [2] = assay: Serum starvation/H2O2/TNFα oxidative stress-induced apoptosis in ARPE-19 cells (Hoechst staining); assay type: cell-based, human; conditions: NPD1 added eight hours after triggering oxidative stress
# Method: Exposure of ARPE-19 cells to growth factors. Cells at 75-80% confluence (72 hr growth in DMEM/F12+10% FBS) were serum-starved for 2 hr before exposure to growth factors. The serum-starved cells were treated with TNF-α (Sigma-Aldrich Corporation, St. Louis, Mo.) (10 ng/ml) and H2O2 (600 μM) to induce oxidative stress and challenged with increasing concentrations (10, 30, 50 nM) and PEDF (Chemicon International, Temecula, Calif.) (50 ng/ml) simultaneously with oxidative stress for 4 hr before harvesting for protein analysis. Cell extracts were made and protein concentrations were adjusted by Bio-Rad protein reagent and used for Western-blot analysis. […] Cells were analyzed to detect Hoechst-positive apoptotic cells.
# Hoechst Staining. […] Cells were washed once with PBS and photographed using a Nikon DIAPHOT 200 microscope with fluorescence optics. Images were recorded by a Hamamatsu Color Chilled 3CCD camera and PHOTOSHOP 5.0 software (Adobe Systems, Mountain View, Calif.).
# A2E, a lipofusin component, accumulates in the RPE during aging, and, in an exaggerated manner, in age-related macular degeneration (AMD) and Stargardt macular dystrophy (an early onset form of AMD). […] Hoechst 33258 was analyzed at 15 hours. […]
# Bcl-2 = Bcl-2 expression in A2E-exposed ARPE-19 cells (Western blot); assay type: cell-based, human; conditions: NPD1 50 nM
# Method: (§1) Analysis of Bcl-2 and caspase-3 cleavage. Bcl-2 protein and caspase-3 cleavage were analyzed by Western-blot analysis. Also, ARPE-19 cells, stably transfected with a lentivirus construct containing the […] caspase 3 cleavage sequence, were used. In short, 15-20 μg equivalent of each cell extract were subjected to electrophoresis on an 8-16% gel (Invitrogen Corporation, Carlsbad, Calif.) at 125 volts for 2 hr. The proteins were transferred to nitrocellulose membranes at 30 volts for 70 minutes at 4° C. The membranes were probed with primary antibodies against Bcl-2 (Santa Cruz Biotechnology, Inc., Santa Cruz, Calif.) and cleaved caspase-3 (Asp-175) (Cell Signaling) at room temperature and treated for 20 minutes with the secondary antibody, goat anti-rabbit IgG: horseradish peroxidase, and horseradish peroxidase-conjugated anti-biotin antibody, then proteins were detected by using an ECL kit (Amersham Biosciences, Buckinghamshire, United Kingdom).
# (§2) Caspase cleavage and Bcl-2 changes triggered by A2E are restored by NPD1. […] NPD1 (50 nM) counteracted the effect of A2E (see Materials and Methods). Data is an average of relative density detection±SEM of six individuals. […] These findings indicate that NPD1 protects the RPE against A2E-induced apoptosis at the pre-mitochondrial level of the apoptosis cascade by altering Bcl-2 balance. […]
# A2E oxiranes (epoxides) = assay: A2E conversion to A2E oxiranes (epoxides) in ARPE-19 cells, LC-MS-MS; assay type: cell-based, human; conditions: NPD1 50 nM; light and oxygen
# Method: (§3) A2E, a lipofusin component, accumulates in the RPE during aging, and, in an exaggerated manner, in age-related macular degeneration (AMD) and Stargardt macular dystrophy (an early onset form of AMD). As a consequence, RPE apoptosis precedes the demise of photoreceptors. […] Seventy-two (72) hours after plating, ARPE-19 cells were serum starved for 4 hours. A2E (20 μM) was added in the presence of 430 nM light and O2 (see Materials and Methods). Other cells were exposed instead to H2O2/TNFα. NPD1 was added prior to, or at different times after, A2E or H2O2/TNFα, up to 12 hours. Time of NPD1 addition is indicated by black arrows on FIG. 1A. Hoechst 33258 was analyzed at 15 hours. FIG. 1B illustrates the appearance of Hoechst 33258 positive cells upon exposure to A2E and the effect of NPD1. FIG. 1C is similar to FIG. 1B, except that H2O2/TNFα was used to trigger oxidative stress. FIG. 1D depicts the formation of oxiranes (epoxides) upon exposure of ARPE-19 cells to A2E in the presence of O2 and 430 nM light for 15 minutes followed by 60 minutes incubation in the dark. […]
# To study the mechanism of NPD1-mediated RPE protection against A2E oxidative stress, the possibility that A2E conversion to A2E oxiranes (epoxides) may be the target of NPD1 was tested. […] Multiple oxiranes (epoxides), up to nonaoxiranes, were detected by MS-MS in ARPE-19 cells exposed to light and oxygen (FIG. 1D).
# ARPE-19 cells [3] = assay: A2E-induced apoptosis in ARPE-19 cells (Hoechst 33258 staining); assay type: cell-based, human
# Method: Hoechst Staining. ARPE-19 cells were incubated with 2 μM Hoechst reagent dissolved in Lock's solution (Promega Corporation, Madison. Wis.) at 37° C. for 45 minutes before imaging. Cells were washed once with PBS and photographed using a Nikon DIAPHOT 200 microscope with fluorescence optics. Images were recorded by a Hamamatsu Color Chilled 3CCD camera and PHOTOSHOP 5.0 software (Adobe Systems, Mountain View, Calif.).
# as §3, with “stress.” for “stress. FIG. 1D depicts the formation of oxiranes (epoxides) upon exposure of ARPE-19 cells to A2E in the presence of O2 and 430 nM light for 15 minutes followed by 60 minutes incubation in the dark.”
# caspase-3 = assay: Caspase-3 cleavage in A2E-exposed ARPE-19 cells (Western blot); assay type: cell-based, human; conditions: NPD1 50 nM
# Method: as §1, §2
# Bax = Bax expression in A2E-exposed ARPE-19 cells (Western blot); assay type: cell-based, human; conditions: NPD1 50 nM
# [4] = increasing concentrations, 72 hr
molecule,measurement,setting,value
"CC/C=C\C/C=C\C/C=C\C/C=C\C/C=C\C/C=C\CCC(=O)O [DHA, docosahexaenoic acid]",Cellular NPD1 content (percentile distribution of total NPD1),NPD1 synthesis; 200 nM DHA (25% when no DHA was added),7%
same,DHA concentration at which NPD1 in the apical media reaches a maximum,NPD1 synthesis; DHA treatment on the apical media,50 nM
"CCCCC/C=C\C/C=C\C/C=C\C/C=C\CCCC(=O)O [arachidonic acid, reference compound]","NPD1 synthesis and release, fatty acid added to the apical medium","NPD1 synthesis; 72 hr, DHA 0 to 200 nM, arachidonic acid under similar conditions",failed to induce NPD1 synthesis
same,"NPD1 synthesis, arachidonic acid in the presence of PEDF",NPD1 synthesis; added arachidonic acid with PEDF,did not stimulate NPD1 synthesis
"CC/C=C\C[C@H](O)\C=C/C=C/C=C/[C@H](O)C/C=C\C/C=C\CCC(=O)O [NPD1, Neuroprotectin D1]","Protection of cell viability (calcein AM, ethidium homodimer, phase contrast)",ARPE-19 cells [1],showed protection
same,"Protection against H2O2/TNFα oxidative stress-induced apoptosis, delayed addition",ARPE-19 cells [2],resulted in protection
same,Effect on Bcl-2 protein expression,Bcl-2,increased Bcl-2 protein expression
same,Effect on A2E conversion to A2E oxiranes (epoxides),A2E oxiranes (epoxides),did not affect this conversion
same,Cytoprotection against A2E-induced apoptosis (Hoechst 33258 positive cells),"ARPE-19 cells [3]; A2E 20 μM, 430 nm light and O2, Hoechst at 15 hours",cytoprotective
same,"Protection against A2E-induced apoptosis, delayed addition",ARPE-19 cells [3]; NPD1 50 nM added 6 hours after A2E,ensures protection
same,Effect on A2E-enhanced caspase-3 cleavage,caspase-3,counteracted A2E-enhanced caspase-3 cleavage
same,Effect on Bax expression,Bax,showed a tendency to decrease Bax expression
"CNTF: ciliary neurotrophic factor, a neurotrophin (protein, UniProt P26441 1-200, looked up) Ciliary neurotrophic factor: MAFTEHSPLTPHRRDLCSRSIWLARKIRSDLTALTESYVKHQGLNKNINLDSADGMPVASTDQWSELTEAERLQENLQAYRTFHVLLARLLEDQQVHFTPTEGDFHQAIHTLLLQVAAFAYQIEELMILLEYKIPRNEADGMPINVGDGGLFEKKLWGLKVLQELSQWTVRSIHDLRFISSHQTGIPARGSHYIANNKKM","NPD1 release, neurotrophin added to the apical medium",NPD1 synthesis; [4],concentration-dependent increases in NPD1 release only on the apical side
same,"NPD1 release, neurotrophin added to the basal medium",NPD1 synthesis; [4],much less NPD1 release on the apical side
